{"source": "patent US11191772B2", "about": "“Use” (DSM IP ASSETS B.V., priority 2017, dated 2021)", "assay_in_all_cases": "Antimicrobial efficacy challenge test (in analogy to NF EN ISO11930)", "key": {"S. aureus": {"system": "S. aureus", "format": "cell-based, Staphylococcus aureus", "settings": "Erythrulose 0.4 wt.-%, 24 h after contamination, 22° C., 0 h count 190000", "description": "(§1) The antimicrobial efficacy is assessed in analogy to the regulatory challenge test method (NF EN ISO11930). Thus, a solution of Erythrulose from DSM Nutritional products in two different concentrations was prepared under sterile conditions. For this the Erythrulose was solubilized in physiological serum with 0.85 wt.-% NaCl. Phenoxyethanol was solubilized in a physiological serum with 0.85 wt.-% NaCl further comprising 5 wt.-% ethanol to ensure solubility. The solutions were deposed in 96-deep well plates (1.6 ml/well). The wells were contaminated with the respective bacterial or the fungal strains at 1.9*10^5 to 8.1*10^5 cfu/ml for the bacteria and 3.3*10^3 to 3.8*10^4 cfu/ml for the fungi to obtain the initial contamination as outlined in table 1 and 2. After contamination each well was thoroughly mixed to ensure a homogeneous distribution of the microorganism. Then each plate was incubated at 22° C. for 24 h. The counting of the (remaining) population was carried out 24 h after contamination."}, "C. albicans": {"system": "C. albicans", "format": "cell-based, Candida albicans", "settings": "Erythrulose 0.4 wt.-%, 24 h after contamination, 22° C., 0 h count 19000", "description": "as §1"}, "Propionibacterium acnes": {"system": "Propionibacterium acnes", "format": "cell-based", "settings": "for colony counts 24 h: 22° C.", "description": "as §1"}, "[1]": {"system": "Staphylococcus epidermidis", "format": "cell-based", "settings": "for colony counts 24 h: 22° C.", "description": "as §1"}, "Aspergillus brasiliensis": {"system": "Aspergillus brasiliensis", "format": "cell-based", "settings": "22° C.", "description": "as §1"}, "Pseudomonas aeruginosa": {"system": "Pseudomonas aeruginosa", "format": "cell-based", "settings": "for colony counts 24 h: 22° C.", "description": "as §1"}, "Escherichia coli": {"system": "Escherichia coli", "format": "cell-based", "settings": "for colony counts 24 h: 22° C.", "description": "as §1"}, "Corynebacterium xerosis": {"system": "Corynebacterium xerosis", "format": "cell-based", "settings": "for colony counts 24 h: 22° C.", "description": "as §1"}}, "data": [{"smiles": "O=C(CO)[C@H](O)CO", "note": "(racemic) [Erythrulose, erythrulose]", "values": [{"measurement": "colony counts 24 h", "setting": "S. aureus", "result": 0, "unit": "cfu/ml"}, {"measurement": "colony counts 24 h", "setting": "C. albicans", "result": 78, "unit": "cfu/ml"}, {"measurement": "colony counts 24 h", "setting": "Propionibacterium acnes; Erythrulose 0.08% active, Propionibacterium acnes, 24 h, t0 count 310000", "result": 3300, "unit": "cfu/ml"}, {"measurement": "colony counts 24 h", "setting": "Propionibacterium acnes; Erythrulose 0.4 wt.-%, P. Acnes, 24 h after contamination, 0 h count 500000", "result": 55000, "unit": "cfu/ml"}, {"measurement": "antimicrobial activity (in words)", "setting": "Propionibacterium acnes; P. acnes, very low concentration (table 2, 0.08%)", "result": "good antimicrobial activity"}, {"measurement": "colony counts 24 h", "setting": "[1]; Erythrulose 0.08% active, Staphylococcus epidermidis, 24 h, t0 count 560000", "result": 0, "unit": "cfu/ml"}, {"measurement": "colony counts 24 h", "setting": "[1]; Erythrulose 0.4 wt.-%, S. epidermidis, 24 h after contamination, 0 h count 500000", "result": 0, "unit": "cfu/ml"}, {"measurement": "antimicrobial activity (in words)", "setting": "[1]; S. epidermidis, very low concentration (table 2, 0.08%)", "result": "particularly and selectively active"}, {"measurement": "colony counts 24 h", "setting": "Aspergillus brasiliensis; Erythrulose 0.08% active, Aspergillus brasiliensis, 24 h, t0 count 10000", "result": 10, "unit": "cfu/ml"}, {"measurement": "colony counts 24 h", "setting": "Aspergillus brasiliensis; Erythrulose 0.4 wt.-%, A. brasiliensis, 24 h after contamination, 0 h count 38000", "result": 330, "unit": "cfu/ml"}, {"measurement": "colony counts 24 h", "setting": "Pseudomonas aeruginosa; Erythrulose 0.08% active, Pseudomonas aeruginosa, 24 h, t0 count 450000", "result": 530000, "unit": "cfu/ml"}, {"measurement": "colony counts 24 h", "setting": "Pseudomonas aeruginosa; Erythrulose 0.4 wt.-%, P. aeruginosa, 24 h after contamination, 0 h count 810000", "result": 0, "unit": "cfu/ml"}, {"measurement": "antimicrobial activity (in words)", "setting": "Pseudomonas aeruginosa; P. aeruginosa, very low concentration (table 2, 0.08%)", "result": "not active anymore"}, {"measurement": "antimicrobial activity (in words)", "setting": "Escherichia coli; E. coli, very low concentration (table 2, 0.08%)", "result": "not active anymore"}, {"measurement": "colony counts 24 h", "setting": "Escherichia coli; Erythrulose 0.08% active, Escherichia coli, 24 h, t0 count 250000", "result": 530000, "unit": "cfu/ml"}, {"measurement": "colony counts 24 h", "setting": "Escherichia coli; Erythrulose 0.4 wt.-%, E. coli, 24 h after contamination, 0 h count 440000", "result": 280000, "unit": "cfu/ml"}, {"measurement": "antimicrobial activity (in words)", "setting": "Corynebacterium xerosis; C. xerosis, very low concentration (table 2, 0.08%)", "result": "particularly and selectively active"}, {"measurement": "colony counts 24 h", "setting": "Corynebacterium xerosis; Erythrulose 0.08% active, Corynebacterium xerosis, 24 h, t0 count 250000", "result": 55, "unit": "cfu/ml"}, {"measurement": "colony counts 24 h", "setting": "Corynebacterium xerosis; Erythrulose 0.4 wt.-%, C. xerosis, 24 h after contamination, 0 h count 810000", "result": 0, "unit": "cfu/ml"}]}]}
